Source: US7482379B2, “Propenoyl hydrazides” (priority 2004, dated 2009)
Peptide text beside a SMILES is read from it. * marks the point of attachment. AFC = O=c1cc(C(F)(F)F)c2ccc(N*)cc2o1; Cbz = O=C(OCc1ccccc1)*

How the values were obtained:
Caspase-3 = target: T1, Caspase-3 (Homo sapiens, UniProt P42574); test: Caspase-3 progress curve inhibition assay; settings: for k2 Caspase-3: second-order rate constant, Ac-DEVD-AMC substrate, Pipes buffer pH 7.2
T1 sequence (P42574 29-175 limits assumed): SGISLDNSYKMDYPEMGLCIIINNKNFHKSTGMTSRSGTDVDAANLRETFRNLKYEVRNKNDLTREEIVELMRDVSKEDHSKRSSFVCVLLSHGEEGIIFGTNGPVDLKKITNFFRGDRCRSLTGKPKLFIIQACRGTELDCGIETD
T1 sequence (P42574 176-277 limits assumed): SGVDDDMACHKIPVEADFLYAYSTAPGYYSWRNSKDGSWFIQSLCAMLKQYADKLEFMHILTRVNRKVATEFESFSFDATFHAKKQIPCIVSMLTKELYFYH

Caspase-6 = target: T2, Caspase-6 (Homo sapiens, UniProt P55212); test: Caspase-6 progress curve inhibition assay; settings: for k2 Caspase-6: second-order rate constant, Ac-DEVD-AMC substrate, Pipes buffer pH 7.2
T2 sequence (P55212 24-179 limits assumed): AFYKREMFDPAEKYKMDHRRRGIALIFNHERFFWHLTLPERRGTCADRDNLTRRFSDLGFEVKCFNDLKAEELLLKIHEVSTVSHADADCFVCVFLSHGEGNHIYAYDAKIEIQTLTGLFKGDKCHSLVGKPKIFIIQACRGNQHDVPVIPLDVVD
T2 sequence (P55212 194-293 limits assumed): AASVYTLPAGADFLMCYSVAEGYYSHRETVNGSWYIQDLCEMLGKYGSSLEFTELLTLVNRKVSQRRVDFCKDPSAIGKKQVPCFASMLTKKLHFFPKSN

Caspase-7 = target: T3, Caspase-7 (Homo sapiens, UniProt P55210); test: Caspase-7 progress curve inhibition assay; settings: for k2 Caspase-7: second-order rate constant, Ac-DEVD-AMC substrate, Pipes buffer pH 7.2
T3 sequence (P55210 24-198 limits assumed): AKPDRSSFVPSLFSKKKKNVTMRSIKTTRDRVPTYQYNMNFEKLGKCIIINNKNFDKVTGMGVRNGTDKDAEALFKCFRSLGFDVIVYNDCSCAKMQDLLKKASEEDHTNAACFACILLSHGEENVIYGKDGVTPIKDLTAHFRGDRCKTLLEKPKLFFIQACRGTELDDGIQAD
T3 sequence (P55210 207-303 limits assumed): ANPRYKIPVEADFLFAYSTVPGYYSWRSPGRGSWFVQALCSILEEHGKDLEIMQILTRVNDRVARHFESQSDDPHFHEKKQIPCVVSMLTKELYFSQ

Caspase-8 = Caspase-8 (Homo sapiens, UniProt Q14790); test: Caspase-8 progress curve inhibition assay; settings: for k2 Caspase-8: second-order rate constant, Ac-DEVD-AMC substrate, Pipes buffer pH 7.2
Caspase-10 = target: T4, Caspase-10 (Homo sapiens, UniProt Q92851); test: Caspase-10 progress curve inhibition assay; settings: for k2 Caspase-10: second-order rate constant, Ac-DEVD-AMC substrate, Hepes/PEG buffer pH 7.0
T4 sequence (Q92851 220-415 limits assumed): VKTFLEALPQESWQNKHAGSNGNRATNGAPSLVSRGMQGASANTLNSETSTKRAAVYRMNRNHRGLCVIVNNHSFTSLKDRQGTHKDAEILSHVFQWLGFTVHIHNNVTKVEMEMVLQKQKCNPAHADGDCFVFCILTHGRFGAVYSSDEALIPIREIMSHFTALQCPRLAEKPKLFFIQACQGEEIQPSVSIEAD
T4 sequence (Q92851 416-521 limits assumed): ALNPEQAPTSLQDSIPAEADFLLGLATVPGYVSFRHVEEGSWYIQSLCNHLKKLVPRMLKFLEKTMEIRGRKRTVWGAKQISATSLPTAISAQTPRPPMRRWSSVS
Method: Caspase-2, -3, -6, -7, -8, -9 and -10. Caspases-2, -3, -6, -7, -8, -9 and -10 were expressed in E. coli and purified in Guy Salvesen's laboratory at the Burnham Institute, La Jolla, Calif., according to the methods known in the art. Inhibition rates were determined by the progress curve method known in the art. This method is suitable for measuring irreversible inhibition rates with fast inhibitors, where the inhibitor, the substrate and the enzyme are incubated together and the rate of substrate hydrolysis is measured continuously. The rate of substrate hydrolysis in the presence of the inhibitor was monitored for 20 minutes. The progress curve of inhibition, where the product formation approaches an asymptote is described in the equation ln([P∞]−[P])=ln[P∞]−A[I]t where [P] and [P∞] are the product concentrations at t and t=∞ respectively, A is the apparent rate constant in the presence of the substrate. The apparent rate constants were determined from the slopes of plots of ln ([P∞]−[P]) versus time (t) in seconds as previously described, where A=slope/[I].
(§1) For competitive and irreversible inhibition, the apparent rate constant is converted to the second order rate constant k2 by taking into consideration the effect of the substrate concentration on the apparent rate constant. The second order rate constant is described as in the equation: k2=A*(1+[S]/KM)
Assay buffer is a 1:1 mixture of buffer (200 mM Hepes, 0.2% (w/v) CHAPS, PEG 20% (w/v)) and 20 mM DTT solution in H2O at pH 7.0). The enzyme was pre-activated for 10 min at 25° C. in the assay buffer.

Caspase-2 = target: T5, Caspase-2 (Homo sapiens, UniProt P42575); test: Caspase-2 progress curve inhibition assay; settings: for k2 Caspase-2: second-order rate constant, Cbz-VDVAD-AFC substrate, Pipes buffer pH 7.2
T5 sequence (P42575 170-333 limits assumed): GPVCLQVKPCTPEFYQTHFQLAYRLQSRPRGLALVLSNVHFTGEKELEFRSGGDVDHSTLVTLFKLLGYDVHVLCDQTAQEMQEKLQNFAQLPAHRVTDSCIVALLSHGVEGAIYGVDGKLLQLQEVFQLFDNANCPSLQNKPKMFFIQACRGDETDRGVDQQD
T5 sequence (P42575 348-452 limits assumed): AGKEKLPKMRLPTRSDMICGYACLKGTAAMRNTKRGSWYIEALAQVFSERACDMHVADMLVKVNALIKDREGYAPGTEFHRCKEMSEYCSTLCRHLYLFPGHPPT
Method: Inhibition rates were determined by the progress curve method known in the art. This method is suitable for measuring irreversible inhibition rates with fast inhibitors, where the inhibitor, the substrate and the enzyme are incubated together and the rate of substrate hydrolysis is measured continuously. The rate of substrate hydrolysis in the presence of the inhibitor was monitored for 20 minutes. The progress curve of inhibition, where the product formation approaches an asymptote is described in the equation ln([P∞]−[P])=ln[P∞]−A[I]t where [P] and [P∞] are the product concentrations at t and t=∞ respectively, A is the apparent rate constant in the presence of the substrate. The apparent rate constants were determined from the slopes of plots of ln ([P∞]−[P]) versus time (t) in seconds as previously described, where A=slope/[I].
as §1
The concentration of the caspase-3 stock solution was 2 nM in the assay buffer. Assay buffer is a 1:1 mixture of caspase buffer (40 mM Pipes, 200 mM NaCl, 0.2% (w/v) CHAPS, sucrose 20% (w/v)) and 20 mM DTT solution in H2O at pH 7.2. The concentration of the substrate stock solution was 2 mM in DMSO. The enzyme was pre-activated for 10 min at 37° C. in the assay buffer. […] 50 μL of 2 nM enzyme stock solution (final concentration: 1 nM) was added to the mixture after 1 min and reading started immediately for 20 min at 37° C. Inhibition experiments were repeated in duplicate and standard deviations determined.
The inhibitor stock solution concentrations varied from 5×10^−3 M to 1×10^−4 M in DMSO.

S. mansoni legumain = S. mansoni legumain (Schistosoma mansoni, UniProt P09841, N192C); test: S. mansoni legumain (SmAE) inhibition assay; format: biochemical
Method: Studies with the propenoyl hydrazides using the schistosome legumain […], (Schistosoma mansoni asparaginyl endopeptidase) were also performed. […] The actual active site enzyme concentration is unknown. The lyophilized enzyme ([…]) was reconstituted in 1.5 mL 0.5 M sodium acetate, pH 4.5 containing 4 mM DTT, and left to stand at 37° C. for 3-4 hours to allow for auto-activation of the zymogen. In a black 96-well microtiter plate, 50 μL of activated enzyme was added to an equal volume of 0.1 M citrate-phosphate buffer pH 6.8 containing 4 mM DTT. Inhibitor stock solutions (20 mM) were prepared in DMSO. Serial dilutions (using water) of inhibitor were added (as 1 μL aliquots) to yield concentrations of between 2 and 0.00002 μM inhibitor. […] After incubating various inhibitor concentrations with enzyme, 100 μL of the same buffer containing 20 μM substrate (Cbz-Ala-Ala-Asn-AMC) was added to the wells and the reaction monitored at room temperature with linear kinetics up to 20 minutes. Inhibitors are tested in duplicate. A plot of the RFU/min versus the inhibitor concentration [μM] permitted calculation of an IC50 value and estimation of the kobs/[I].

Caspase-8, sequence (Q14790 217-374 limits assumed): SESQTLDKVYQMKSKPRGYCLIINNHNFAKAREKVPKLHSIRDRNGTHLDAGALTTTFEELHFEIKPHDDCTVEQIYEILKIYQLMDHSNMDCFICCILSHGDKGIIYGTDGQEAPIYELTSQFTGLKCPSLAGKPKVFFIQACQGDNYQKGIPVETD
Caspase-8, sequence (Q14790 385-479 limits assumed): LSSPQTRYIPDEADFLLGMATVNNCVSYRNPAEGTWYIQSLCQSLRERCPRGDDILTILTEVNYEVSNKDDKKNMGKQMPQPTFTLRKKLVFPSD
S. mansoni legumain, sequence (P09841 32-291 N192C): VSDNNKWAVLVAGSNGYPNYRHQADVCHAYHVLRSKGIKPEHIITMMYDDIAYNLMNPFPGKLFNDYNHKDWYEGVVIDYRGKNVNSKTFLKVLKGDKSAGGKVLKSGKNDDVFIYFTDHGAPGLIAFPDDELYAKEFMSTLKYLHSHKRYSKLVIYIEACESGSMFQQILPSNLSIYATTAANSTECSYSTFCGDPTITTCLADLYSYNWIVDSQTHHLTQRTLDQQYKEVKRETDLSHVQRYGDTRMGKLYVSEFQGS

Row | Structure (SMILES) | k2 Caspase-2 (Caspase-2) | k2 Caspase-3 (Caspase-3) | k2 Caspase-6 (Caspase-6) | k2 Caspase-7 (Caspase-7) | k2 Caspase-8 (Caspase-8) | k2 Caspase-10 (Caspase-10) | also measured
1 | CC(=O)N[C@@H](CC(=O)O)C(=O)N[C@@H](CCC(=O)O)C(=O)N[C@H](C(=O)N[C@@H](CC(=O)O)C(=O)Nc1ccc2c(C)cc(=O)oc2c1)C(C)C [Ac-DEVD-AMC, reference compound] | – | – | – | – | – | – | Km (Caspase-3; read-out: KM with caspase-3, substrate Ac-DEVD-AMC): 9.7 µM; Km (Caspase-6; read-out: KM with caspase-6, substrate Ac-DEVD-AMC): 236 µM; Km (Caspase-7; read-out: KM with caspase-7, substrate Ac-DEVD-AMC): 23 µM; Km (Caspase-8; read-out: KM with caspase-8, substrate Ac-DEVD-AMC): 6.79 µM; Km (Caspase-10; read-out: KM with caspase-10, substrate Ac-DEVD-AMC): 20.2 µM
2 | CC[C@H](C)[C@H](NC(=O)OCc1ccccc1)C(=O)N[C@@H](CCC(=O)O)C(=O)N[C@H](C(=O)NN(CC(=O)O)C(=O)/C=C/C(=O)OCc1ccccc1)[C@@H](C)O (relative stereo) [Cbz-Ile-Glu-Thr-AAsp-CH═CH—COOCH2Ph, N^1-trans-(3-Benzyloxycarbonylpropenoyl)-N^2—(N-benzyloxycarbonylisoleucylglutamylthreonyl)-N^1-carboxylmethylhydrazine] | 110 M⁻¹ s⁻¹ | 2,300 M^−1s^−1 | 23,350 M^−1s^−1 | 660 M⁻¹ s⁻¹ | 148,400 M^−1s^−1 | 15,200 M^−1s^−1 | –
3 | CC(NC(=O)C(NC(=O)C(CC(=O)O)NC(=O)C(NC(=O)OCc1ccccc1)C(C)C)C(C)C)C(=O)NC(CC(=O)O)C(=O)Nc1ccc2c(C(F)(F)F)cc(=O)oc2c1 (stereo not drawn) [Z-VDVAD-AFC, reference compound] (Cbz-VDVAD-{AFC}; configuration not given here) | – | – | – | – | – | – | Km (Caspase-2; read-out: KM with caspase-2, substrate Z-VDVAD-AFC): 80.5 µM
4 | CCOC(=O)/C=C/C(=O)N(CC(=O)O)NC(=O)[C@@H](NC(=O)[C@H](CCC(=O)O)NC(=O)[C@@H](NC(=O)OCc1ccccc1)[C@@H](C)CC)[C@@H](C)O (relative stereo) [Cbz-Ile-Glu-Thr-AAsp-CH═CH—COOEt, N^2—(N-Benzyloxycarbonylisoleucylglutamylthreonyl)-N^1-carboxymethyl-N^1-trans-(3-ethoxycarbonylpropenoyl)hydrazine] | 300 M⁻¹ s⁻¹ | 6,740 M^−1s^−1 | 88,700 M^−1s^−1 | 530 M⁻¹ s⁻¹ | 56,500 M^−1s^−1 | 6,900 M^−1s^−1 | –
5 | CCOC(=O)/C=C\C(=O)N(CC(=O)O)NC(=O)[C@@H](NC(=O)[C@H](CCC(=O)O)NC(=O)[C@H](CC(=O)O)NC(=O)OCc1ccccc1)C(C)C (relative stereo) [Cbz-Asp-Glu-Val-AAsp-CH═CH—COOEt (cis), N^2—(N-Benzyloxycarbonylaspartylglutamylvalyl)-N^1-carboxylmethyl-N^1-cis-(3-ethoxycarbonylpropenoyl)hydrazine] | 26,200 ± ^ M^−1s^−1 | 1,060,000 M^−1s^−1 | 11,000 M^−1s^−1 | 139,000 M^−1s^−1 | 181,000 M^−1s^−1 | 13,500 M^−1s^−1 | –
6 | CC(C)[C@H](NC(=O)[C@H](CCC(=O)O)NC(=O)[C@H](CC(=O)O)NC(=O)OCc1ccccc1)C(=O)NN(CC(=O)O)C(=O)/C=C/C(=O)c1ccccc1 (relative stereo) [Cbz-Asp-Glu-Val-AAsp-CH═CH—COPh, N^2—(N-Benzyloxycarbonylaspartylglutamylvalyl)-N^1-trans-(3-benzoylpropenoyl)-N^1-carboxymethylhydrazine] | 165 M⁻¹ s⁻¹ | 122,000 M^−1s^−1 | 1,800 M^−1s^−1 | 10,800 M^−1s^−1 | 9,720 M^−1s^−1 | 930 M⁻¹ s⁻¹ | –
7 | CCOC(=O)/C=C/C(=O)N(CC(=O)O)NC(=O)[C@@H](NC(=O)[C@H](CCC(=O)O)NC(=O)OCc1ccccc1)C(C)C (relative stereo) [Cbz-Glu-Val-AAsp-CH═CH—COOEt, N^2—(N-Benzyloxycarbonylglutamylvalyl)-N^1-carboxymethyl-N^1-trans-(3-ethoxycarbonylpropenoyl)hydrazine] | 90 M⁻¹ s⁻¹ | 38,600 M^−1s^−1 | 3,540 M^−1s^−1 | 52,400 M^−1s^−1 | – | 8,940 M^−1s^−1 | –
8 | CC(C)C[C@H](NC(=O)OCc1ccccc1)C(=O)N[C@@H](CCC(=O)O)C(=O)N[C@H](C(=O)NN(CC(=O)O)C(=O)/C=C/C(=O)OCc1ccccc1)[C@@H](C)O (relative stereo) [Cbz-Leu-Glu-Thr-AAsp-CH═CH—COOCH2Ph, N^1-trans-(3-Benzyloxycarbonylpropenoyl)-N^2—(N-benzyloxycarbonylleucylglutamylthreonyl)-N^1-carboxymethylhydrazine] | 480 M⁻¹ s⁻¹ | 4,600 M^−1s^−1 | 47,600 M^−1s^−1 | 1,570 M^−1s^−1 | 98,400 M^−1s^−1 | 18,900 M^−1s^−1 | –
9 | C[C@H](NC(=O)OCc1ccccc1)C(=O)N[C@@H](C)C(=O)NN(CC(N)=O)C(=O)/C=C/C(=O)N(Cc1ccccc1)c1ccccc1 [Cbz-Ala-Ala-AAsn-CH═CH—CON(Bzl)Ph, N^2—(N-Benzyloxycarbonylalanylalanyl)-N^1-carbamoylmethyl-N^1-trans-(3-phenylbenzylcarbamoylpropenoyl)hydrazine] | – | – | – | – | – | – | IC50 (S. mansoni legumain): 70 nM
10 | CCCCN(CCCC)C(=O)/C=C/C(=O)N(CC(N)=O)NC(=O)[C@H](C)NC(=O)[C@H](C)NC(=O)OCc1ccccc1 [Cbz-Ala-Ala-AAsn-CH═CH—CON(nBu)2, N^2—(N-Benzyloxycarbonylalanylalanyl)-N^1-carbamoylmethyl-N^1-trans-(3-dibutylcarbamoylpropenoyl)hydrazine] | – | – | – | – | – | – | IC50 (S. mansoni legumain): 550 nM
11 | CC(C)[C@H](NC(=O)[C@H](CCC(=O)O)NC(=O)[C@H](CC(=O)O)NC(=O)OCc1ccccc1)C(=O)NN(CC(=O)O)C(=O)/C=C/C(=O)OCc1ccccc1 (relative stereo) [Cbz-Asp-Glu-Val-AAsp-CH═CH—COOCH2Ph, N^1-trans-(3-Benzyloxycarbonylpropenoyl)-N^2—(N-benzyloxycarbonylaspartylglutamylvalyl)-N^1-carboxymethylhydrazine] | – | 1,700,000 M^−1s^−1 | 8,470 M^−1s^−1 | 114,000 M^−1s^−1 | 121,000 M^−1s^−1 | 28,300 M^−1s^−1 | –
